Measured values published in patent US20060116390A1, “Hepatitis c virus inhibitors” (priority 2003, published 2006).
Where two headings read alike, the source gives them in different places.

Tested on: HCV proteins in Rep5.1 cells (replicon cell line)
Assay: Inhibitory activity of HCV: cell-based ELISA in replicon cell line Rep5.1 (decrease of HCV proteins)
Design: species or system hepatitis C virus
Details: Rep5.1 cells, 72 hours with drug
Summary of the method: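 Rep5.1 replicon cells (5000/well, DMEM-10 with 500 μg/ml G418) were given serially diluted drug 4 h after seeding. After 72 h, cells were fixed in methanol/acetone and HCV proteins detected by cell-based ELISA using replicon-specific patient plasma antibodies. IC50 is the concentration giving 50% protein decrease versus the no-drug control.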

[1] = Hepatitis C virus, 72 h, concentration at which 50% of HCV proteins was decreased, Table 2, read-out: IC50
[2] = Hepatitis C virus, 72 h, decrease of HCV proteins measured by HCV antibody, Table 1, read-out: Level (IC50 values classified)
[3] = concentration at which 50% of HCV proteins was decreased, Table 2, read-out: IC50

Compound	IC50 [1]	IC50 [2]	IC50 [3]
COc1ccc(C2(COC(=O)C3=C(C)NC(=S)NC3CF)CCCC2)cc1 (stereo not drawn) [64′, 4-fluoromethyl-6-methyl-2-thioxo-1,2,3,4-tetrahydro-pyrimidine-5-carboxylic acid 1-(4-methoxy-phenyl)-cyclopentylmethyl ester]	3000 nM	1000 to 10000 nM	–
CC1=C(C(=O)OCCc2c(F)cccc2F)C(CO)NC(=S)N1 (stereo not drawn) [39″, 4-hydroxymethyl-6-methyl-2-thioxo-1,2,3,4-tetrahydro-pyrimidine-5-carboxylic acid 2-(2,6-difluoro-phenyl)-ethyl ester]	20000 nM	10000 to 20000 nM	–
CC1=C(C(=O)OCc2ccccc2)C(C(F)(F)F)NC(=S)N1 (stereo not drawn) [Compound 234, 6-methyl-2-thioxo-4-trifluoromethyl-1,2,3,4-tetrahydro-pyrimidine-5-carboxylic acid benzyl ester]	100000 nM	> 20000 nM	–
COc1ccc(CCOC(=O)C2=C(C)NC(=S)NC2)cc1 [Compound 92, 6-methyl-2-thioxo-1,2,3,4-tetrahydro-pyrimidine-5-carboxylic acid 2-(4-methoxy-phenyl)-ethyl ester]	1000 nM	< 1000 nM	–
C#CCOC(=O)C1=C(C)NC(=S)NC1 [Compound 159, 6-methyl-2-thioxo-1,2,3,4-tetrahydro-pyrimidine-5-carboxylic acid prop-2-inyl ester]	–	–	> 100000 nM
CC1=C(C(=O)OCCOCc2ccccc2)CNC(=S)N1 [Compound 15, 6-methyl-2-thioxo-1,2,3,4-tetrahydro-pyrimidine-5-carboxylic acid 2-benzyloxy-ethyl ester]	3000 nM	1000 to 10000 nM	–
O=C(OCCc1ccsc1)C1=CNC(=S)NC1 [Compound 261, 2-thioxo-1,2,3,4-tetrahydro-pyrimidine-5-carboxylic acid 2-thiophen-3-yl-ethyl ester]	800 nM	< 1000 nM	–
CC1=C(C(=O)OCCc2ccc(OCc3ccccc3)cc2)C(CO)NC(=S)N1 (stereo not drawn) [27″, 4-hydroxymethyl-6-methyl-2-thioxo-1,2,3,4-tetrahydro-pyrimidine-5-carboxylic acid 2-(4-benzyloxy-phenyl)-ethyl ester]	400 nM	< 1000 nM	–
CC1=C(C(=O)OCC(Br)=CBr)CNC(=S)N1 [Compound 193, 6-methyl-2-thioxo-1,2,3,4-tetrahydro-pyrimidine-5-carboxylic acid 2,3-dibromo-allyl ester]	1000 nM	< 1000 nM	–
CCC#CCCOC(=O)C1=C(C)NC(=S)NC1 [Compound 157, 6-methyl-2-thioxo-1,2,3,4-tetrahydro-pyrimidine-5-carboxylic acid hex-3-inyl ester]	–	–	1000 nM
COc1c(C)cc(COC(=O)C2=C(C)NC(=S)NC2)cc1C [Compound 180, 6-methyl-2-thioxo-1,2,3,4-tetrahydro-pyrimidine-5-carboxylic acid 4-methoxy-3,5-dimethyl-benzyl ester]	800 nM	< 1000 nM	–
CC1=C(C(=O)OC2Cc3cscc3C2)CNC(=S)N1 [11′, 6-methyl-2-thioxo-1,2,3,4-tetrahydro-pyrimidine-5-carboxylic acid 5,6-dihydro-4H-cyclopenta[c]thiophen-5-yl ester]	77000 nM	> 20000 nM	–
CC1=C(C(=O)OCc2ccco2)CNC(=S)N1 [Compound 12, 6-methyl-2-thioxo-1,2,3,4-tetrahydro-pyrimidine-5-carboxylic acid furan-2-ylmethyl ester]	22000 nM	10000 to 20000 nM	–
CC1=C(C(=O)OCCc2ccc(C)s2)CNC(=S)N1 [Compound 258, 6-methyl-2-thioxo-1,2,3,4-tetrahydro-pyrimidine-5-carboxylic acid 2-(5-methyl-thiophen-2-yl)-ethyl ester]	< 400 nM	< 1000 nM	–
CC1=C(C(=O)OCc2cccs2)CNC(=S)N1 [Compound 153, 6-methyl-2-thioxo-1,2,3,4-tetrahydro-pyrimidine-5-carboxylic acid thiophen-2-ylmethyl ester]	2700 nM	1000 to 10000 nM	–
COc1ccc(CSC(=O)C2=C(C)NC(=S)NC2)cc1 [Compound 121, 6-methyl-2-thioxo-1,2,3,4-tetrahydro-pyrimidine-5-carbothioic acid S-(4-methoxy-benzyl)ester]	500 nM	< 1000 nM	–
CC1=C(C(=O)OCCCc2ccco2)CNC(=S)N1 [Compound 250, 6-methyl-2-thioxo-1,2,3,4-tetrahydro-pyrimidine-5-carboxylic acid 3-furan-2-yl-propyl ester]	400 nM	< 1000 nM	–
CC1=C(C(=O)OCCc2ccc(F)c(F)c2)C(CF)NC(=S)N1 (stereo not drawn) [90′, 4-fluoromethyl-6-methyl-2-thioxo-1,2,3,4-tetrahydro-pyrimidine-5-carboxylic acid 2-(3,4-difluoro-phenyl)-ethyl ester]	800 nM	< 1000 nM	–
CC1=C(C(=O)OCCCc2ccsc2)C(CO)NC(=S)N1 (stereo not drawn) [6″, 4-hydroxymethyl-6-methyl-2-thioxo-1,2,3,4-tetrahydro-pyrimidine-5-carboxylic acid 3-thiophen-3-yl-propyl ester]	1900 nM	1000 to 10000 nM	–
CC1=C(C(=O)OCCc2cccc(C(F)(F)F)c2)C(CO)NC(=S)N1 (stereo not drawn) [38″, 4-hydroxymethyl-6-methyl-2-thioxo-1,2,3,4-tetrahydro-pyrimidine-5-carboxylic acid 2-(3-trifluoromethyl-phenyl)-ethyl ester]	< 400 nM	< 1000 nM	–
CC1=C(C(=O)OCCc2cc3c(C)snc3s2)CNC(=S)N1 [5′, 6-methyl-2-thioxo-1,2,3,4-tetrahydro-pyrimidine-5-carboxylic acid 2-(3-methyl-thieno[2,3-c]isothiazol-5-yl)-ethyl ester]	2500 nM	1000 to 10000 nM	–
CC1=C(C(=O)OCC#CCOCc2ccccc2)CNC(=S)N1 [Compound 214, 6-methyl-2-thioxo-1,2,3,4-tetrahydro-pyrimidine-5-carboxylic acid 4-benzyloxy-but-2-inyl ester]	–	–	< 400 nM
CC1=C(C(=O)OCCc2ccccc2[N+](=O)[O-])C(CF)NC(=S)N1 (stereo not drawn) [77′, 4-fluoromethyl-6-methyl-2-thioxo-1,2,3,4-tetrahydro-pyrimidine-5-carboxylic acid 2-(2-nitro-phenyl)-ethyl ester]	39000 nM	> 20000 nM	–
COC(=O)NCCOC(=O)OCC1NC(=S)NC(C)=C1C(=O)OCCc1cccc(Cl)c1 (stereo not drawn) [80″, 4-(2-methoxycarbonylnamino-ethoxycarbonyloxymethyl)-6-methyl-2-thioxo-1,2,3,4-tetrahydro-pyrimidine-5-carboxylic acid 2-(3-chloro-phenyl)-ethyl ester]	–	–	1100 nM
CC(=O)OCC1NC(=S)NC(C)=C1C(=O)OCCc1ccsc1 (stereo not drawn) [21″, 4-acetoxymethyl-6-methyl-2-thioxo-1,2,3,4-tetrahydro-pyrimidine-5-carboxylic acid 2-thiophen-3-yl-ethyl ester]	> 100000 nM	> 20000 nM	–
C=CCC(C=C)OC(=O)C1=C(C)NC(=S)NC1 (stereo not drawn) [Compound 55, 6-methyl-2-thioxo-1,2,3,4-tetrahydro-pyrimidine-5-carboxylic acid 1-vinyl-but-3-enyl ester]	2500 nM	1000 to 10000 nM	–
